Experimental data taken from PubChem BioAssay AID256 (DTP/NCI, 2004).
Where “and” joins values, the source holds several entries; their conditions need not be identical. Equal entries are not always repeated. Toxic doses and inconclusive results are not listed. The calls were made as follows: active = survival T/C of 150% or more; inactive = T/C below 125% in these data.

System: CD2F1 mice, L1210 leukemia ip, survival T/C
Assay: NCI In Vivo Anticancer Drug Screen. Data for tumor model L1210 Leukemia (intraperitoneal) in CD2F1 (CDF1) mice
Details: higher = longer survival
Outline: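 Mice carrying a transplanted tumor received test compound or vehicle alone. The value is the measurement in the treated group divided by that in the vehicle-treated control group.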

[1] = endpoint: mean survival time, dose: 6.25 mg/kg/injection, schedule: Q01DX009 (ip), vehicle: saline with Tween-80
[2] = endpoint: mean survival time, dose: 12.5 mg/kg/injection, schedule: Q01DX009 (ip), vehicle: saline with Tween-80
[3] = endpoint: mean survival time, dose: 25.0 mg/kg/injection, schedule: Q01DX009 (ip), vehicle: saline with Tween-80
[4] = endpoint: mean survival time, dose: 50.0 mg/kg/injection, schedule: Q01DX009 (ip), vehicle: saline with Tween-80
[5] = endpoint: mean survival time, dose: 100.0 mg/kg/injection, schedule: Q01DX009 (ip), vehicle: saline with Tween-80
[6] = endpoint: mean survival time, dose: 200.0 mg/kg/injection, schedule: Q01DX009 (ip), vehicle: saline with Tween-80
[7] = endpoint: mean survival time, dose: 100.0 mg/kg/injection, schedule: Q04DX003 (ip), vehicle: saline with Tween-80
[8] = endpoint: mean survival time, dose: 200.0 mg/kg/injection, schedule: Q04DX003 (ip), vehicle: saline with Tween-80
[9] = endpoint: mean survival time, dose: 400.0 mg/kg/injection, schedule: Q04DX003 (ip), vehicle: saline with Tween-80
[10] = endpoint: mean survival time, dose: 400.0 mg/kg/injection, schedule: Q01DX009 (ip), vehicle: saline with Tween-80
[11] = endpoint: mean survival time, dose: 100.0 mg/kg/injection, schedule: Q01DX001 (ip), vehicle: saline with Tween-80
[12] = endpoint: mean survival time, dose: 200.0 mg/kg/injection, schedule: Q01DX001 (ip), vehicle: saline with Tween-80
[13] = endpoint: mean survival time, dose: 400.0 mg/kg/injection, schedule: Q01DX001 (ip), vehicle: saline with Tween-80

Measured: T/C

CN(C)CCOc1ccc2c(c1)C/C(=C/c1ncc([N+](=O)[O-])n1C)C2=O
inactive: [1] 96 % of control and 98 % of control | [2] 107 % of control | [3] 107 % of control and 108 % of control | [4] 117 % of control and 107 % of control | [5] 119 % of control and 104 % of control | [6] 111 % of control

Cc1ccc(C2=NNc3n[nH]c(=S)n3N2)cc1
inactive: [5] 101 % of control | [7] 95 % of control | [6] 96 % of control | [8] 93 % of control | [9] 91 % of control

O=C1C=C(c2ccccc2)CC1
inactive: [4] 104 % of control | [5] 93 % of control | [7] 101 % of control | [8] 100 % of control

CCCCCCCC(=O)Nc1cccc(C)c1C
inactive: [5] 105 % of control | [6] 89 % of control | [10] 104 % of control

CCCCCCCCCCCCCCCCS(=O)(=O)CCO
inactive: [7] 90 % of control | [8] 88 % of control | [9] 90 % of control

Cc1ccc(C(C)C)c(OCCN)c1
inactive: endpoint: mean survival time, dose: 25.0 mg/kg/injection, schedule: Q04DX002 (ip), vehicle: saline 94 % of control | endpoint: mean survival time, dose: 50.0 mg/kg/injection, schedule: Q04DX002 (ip), vehicle: saline 97 % of control | endpoint: mean survival time, dose: 100.0 mg/kg/injection, schedule: Q04DX002 (ip), vehicle: saline 93 % of control and 97 % of control

CC1=C(/C=C/C(=O)O)C(C)(C)CCC1
inactive: endpoint: mean survival time, dose: 100.0 mg/kg/injection, schedule: Q04DX002 (ip), vehicle: saline with Tween-80 92 % of control | endpoint: mean survival time, dose: 200.0 mg/kg/injection, schedule: Q04DX002 (ip), vehicle: saline with Tween-80 96 % of control | endpoint: mean survival time, dose: 400.0 mg/kg/injection, schedule: Q04DX002 (ip), vehicle: saline with Tween-80 92 % of control

COc1cc2c(cc1O)N=C[C@@H]1CCC(O)N1C2=O (mixture of isomers)
inactive: endpoint: mean survival time, dose: 0.5 mg/kg/injection, schedule: Q01DX009 (ip), vehicle: saline 108 % of control | endpoint: mean survival time, dose: 1.0 mg/kg/injection, schedule: Q01DX009 (ip), vehicle: saline 102 % of control and 108 % of control | endpoint: mean survival time, dose: 2.0 mg/kg/injection, schedule: Q01DX009 (ip), vehicle: saline 118 % of control and 111 % of control | endpoint: mean survival time, dose: 4.0 mg/kg/injection, schedule: Q01DX009 (ip), vehicle: saline 113 % of control and 117 % of control | endpoint: mean survival time, dose: 8.0 mg/kg/injection, schedule: Q01DX009 (ip), vehicle: saline 106 % of control and 107 % of control | endpoint: median survival time, dose: 0.1 mg/kg/injection, schedule: Q01DX005 (ip), vehicle: saline 102 % of control | endpoint: median survival time, dose: 0.2 mg/kg/injection, schedule: Q01DX005 (ip), vehicle: saline 102 % of control | endpoint: median survival time, dose: 0.4 mg/kg/injection, schedule: Q01DX005 (ip), vehicle: saline 102 % of control | endpoint: median survival time, dose: 0.8 mg/kg/injection, schedule: Q01DX005 (ip), vehicle: saline 102 % of control | endpoint: median survival time, dose: 1.6 mg/kg/injection, schedule: Q01DX005 (ip), vehicle: saline 107 % of control

O=C(OC1COC(OCc2ccccc2)C(OC(=O)c2ccccc2)C1OC(=O)c1ccccc1)c1ccccc1 (stereo not drawn)
inactive: [1] 102 % of control | [2] 105 % of control | [3] 108 % of control

Nc1nc(N)c2c(n1)CN(c1ccccc1)C2
inactive: endpoint: mean survival time, dose: 75.0 mg/kg/injection, schedule: Q01DX001 (ip), vehicle: saline 102 % of control | endpoint: mean survival time, dose: 150.0 mg/kg/injection, schedule: Q01DX001 (ip), vehicle: saline 104 % of control | endpoint: mean survival time, dose: 300.0 mg/kg/injection, schedule: Q01DX001 (ip), vehicle: saline 106 % of control

CC(=O)OC1CCC2(C)C(CCC3C2CCC2(C)C(c4cccc(=O)o4)CCC32)C1 (stereo not drawn)
inactive: endpoint: mean survival time, dose: 100.0 mg/kg/injection, schedule: Q01DX001 (ip), vehicle: saline 101 % of control | endpoint: mean survival time, dose: 200.0 mg/kg/injection, schedule: Q01DX001 (ip), vehicle: saline 97 % of control | endpoint: mean survival time, dose: 400.0 mg/kg/injection, schedule: Q01DX001 (ip), vehicle: saline 95 % of control

CC(CO)CCC(C)CO (stereo not drawn)
inactive: [7] 100 % of control | [8] 95 % of control | [9] 100 % of control

O=C(COc1ccc(Cl)cc1)C1CSc2ccc(Cl)cc21 (stereo not drawn)
inactive: [5] 88 % of control | [7] 95 % of control | [6] 91 % of control | [8] 92 % of control | [10] 89 % of control | [9] 88 % of control

O=C1C=CC(=O)C(SCCC(=O)O)=C1
inactive: endpoint: mean survival time, dose: 50.0 mg/kg/injection, schedule: Q04DX003 (ip), vehicle: saline with Tween-80 94 % of control | [7] 96 % of control | [8] 111 % of control

CCOC(=O)CCCCSCCCCC(=O)OCC
inactive: [11] 100 % of control | [12] 105 % of control | [13] 101 % of control

O=C1OC(Cc2ccccc2)(c2ccccc2)c2ccccc21 (stereo not drawn)
inactive: [7] 88 % of control | [8] 88 % of control

Cc1cccc[n+]1[O-]
inactive: endpoint: mean survival time, dose: 100.0 mg/kg/injection, schedule: Q04DX003 (ip), vehicle: saline 101 % of control | endpoint: mean survival time, dose: 200.0 mg/kg/injection, schedule: Q04DX003 (ip), vehicle: saline 98 % of control | endpoint: mean survival time, dose: 400.0 mg/kg/injection, schedule: Q04DX003 (ip), vehicle: saline 88 % of control

Cc1cc2nc(NN)[nH]c2cc1C
inactive: [7] 98 % of control | [8] 98 % of control | [9] 114 % of control

COc1cc(OC)cc(C2=NNc3n[nH]c(=S)n3N2)c1
inactive: [5] 91 % of control | [7] 93 % of control | [6] 93 % of control | [8] 90 % of control | [9] 102 % of control

Nc1ncnc2nc(-c3cccc(CNC(=O)c4ccccc4S(=O)(=O)F)c3)[nH]c12
inactive: [11] 87 % of control | [13] 87 % of control

O=C1c2ccccc2C(=O)N1CCc1c[nH]c2ccccc12
inactive: [11] 102 % of control | [12] 104 % of control | [13] 104 % of control

CCOC(=O)C(=NN)C(=O)OCC
inactive: [11] 97 % of control | [5] 96 % of control | [12] 105 % of control | [6] 101 % of control | [13] 102 % of control | [10] 93 % of control

CCOC(=O)/C=C/C1CCCCC1
inactive: [4] 96 % of control | [5] 104 % of control | [6] 96 % of control

CC1CCN(Cc2c(COc3ccc(Cl)cc3)n(C)c3ccccc23)CC1
inactive: [7] 87 % of control | [8] 93 % of control | [9] 94 % of control

S=C(NNc1ccccc1)NC1CCCCC1
inactive: endpoint: mean survival time, dose: 25.0 mg/kg/injection, schedule: Q01DX009 (ip), vehicle: acetone 96 % of control | endpoint: mean survival time, dose: 50.0 mg/kg/injection, schedule: Q01DX009 (ip), vehicle: acetone 100 % of control | endpoint: mean survival time, dose: 100.0 mg/kg/injection, schedule: Q01DX009 (ip), vehicle: acetone 96 % of control

CC(O)C(NC(=O)c1cnc(OCc2ccccc2)nc1N)C(=O)O (stereo not drawn)
inactive: [1] 104 % of control | [2] 100 % of control | [3] 104 % of control

[Cl][Pt+2][Cl].[NH-]c1ccccc1[NH-]
inactive: endpoint: mean survival time, dose: 1.25 mg/kg/injection, schedule: Q01DX009 (ip), vehicle: saline with Tween-80 120 % of control | endpoint: mean survival time, dose: 10.0 mg/kg/injection, schedule: Q01DX009 (ip), vehicle: saline with Tween-80 100 % of control

Clc1ccc(C#Cc2ccc(Cl)cc2)cc1
inactive: endpoint: mean survival time, dose: 75.0 mg/kg/injection, schedule: Q01DX001 (ip), vehicle: other 103 % of control | [7] 100 % of control | endpoint: mean survival time, dose: 150.0 mg/kg/injection, schedule: Q01DX001 (ip), vehicle: other 94 % of control | endpoint: mean survival time, dose: 300.0 mg/kg/injection, schedule: Q01DX001 (ip), vehicle: other 88 % of control | [9] 87 % of control

CC1CC[N-]CC1.CC1CC[N-]CC1.CC1CC[N-]CC1.CC1CC[N-]CC1.CS(C)=O.CS(C)=O.[Cl-].[Cl-].[Cl-].[Cl-].[Pt+4].[Rh+3]
inactive: endpoint: mean survival time, dose: 0.2 mg/kg/injection, schedule: Q01DX009 (ip), vehicle: water 97 % of control | endpoint: mean survival time, dose: 0.4 mg/kg/injection, schedule: Q01DX009 (ip), vehicle: water 92 % of control | endpoint: mean survival time, dose: 0.78 mg/kg/injection, schedule: Q04DX003 (ip), vehicle: Klucel (hydroxypropylcellulose) (HPC) 102 % of control | endpoint: mean survival time, dose: 0.8 mg/kg/injection, schedule: Q01DX009 (ip), vehicle: water 93 % of control | endpoint: mean survival time, dose: 1.5 mg/kg/injection, schedule: Q01DX009 (ip), vehicle: water 97 % of control | endpoint: mean survival time, dose: 1.56 mg/kg/injection, schedule: Q04DX003 (ip), vehicle: Klucel (hydroxypropylcellulose) (HPC) 98 % of control | endpoint: mean survival time, dose: 3.0 mg/kg/injection, schedule: Q01DX009 (ip), vehicle: water 92 % of control | endpoint: mean survival time, dose: 3.13 mg/kg/injection, schedule: Q04DX003 (ip), vehicle: Klucel (hydroxypropylcellulose) (HPC) 102 % of control | endpoint: mean survival time, dose: 6.25 mg/kg/injection, schedule: Q04DX003 (ip), vehicle: water 103 % of control

O=c1oc(-c2cc([N+](=O)[O-])ccc2Cl)nc2ccccc12
inactive: [4] 95 % of control | [5] 90 % of control | [6] 95 % of control

COC(=O)C1(C)CCCC2(C)C1CCC13C2CC1C1(C(C)C)OC31 (stereo not drawn)
inactive: [7] 89 % of control | [8] 92 % of control
